Data as given in patent US7192746B2, “α-Isomaltosyltransferase, process for producing the same and use thereof” (Kabushiki Kaisha Hayashibara Seibutsu Kagaku Kenkyujo, priority 2000, dated 2007).
Read-outs that look alike come from different tables or passages of the source.

Columns and labels:
Type in all cases: biochemical
[1] = tested on: α-isomaltosyl-transferring enzyme from Bacillus globisporus C9; experiment: Influence of metal ions on enzyme activity; settings: enzyme of Strain C9; for Relative activity: 1 mM metal ion; for Effect on enzyme activity: 1 mM
Experimental: (§1) The activity of the enzyme was assayed by dissolving panose in 100 mM acetate buffer (pH 6.0) to give a concentration of two percent (w/v) for a substrate solution, adding a 0.5 ml of an enzyme solution to a 0.5 ml of the substrate solution, enzymatically reacting the mixture solution at 35° C. for 30 min, suspending the reaction mixture by boiling for 10 min, and quantifying glucose by the glucose oxidation method. One unit activity of the α-isomaltosyl-transferring enzyme is defined as the enzyme amount that forms one micromole of glucose per minute under the above enzymatic reaction conditions. Throughout the specification, the enzymatic activity of the α-isomaltosyl-transferring enzyme means the unit(s) assayed as above.
The influence of metal ions on the activity of α-isomaltosyl-transferring enzyme was examined in the presence of 1 mM of each metal-ion according to the assay for the enzyme activity.

[2] = tested on: α-isomaltosyl-transferring enzyme from Arthrobacter ramosus S1; experiment: Influence of metal ions on enzyme activity; settings: enzyme of Strain S1; for Relative activity: 1 mM metal ion; for Effect on enzyme activity: 1 mM
Experimental: as §1
(§2) The influence of metal ions on the activity of α-isomaltosyl-transferring enzyme was examined in the presence of 1 mM of a metal ion according to the assay for the enzyme activity.

[3] = tested on: α-isomaltosyl-transferring enzyme from Bacillus globisporus C11; experiment: Influence of metal ions on enzyme activity; settings: enzyme of Strain C11; for Relative activity: 1 mM metal ion; for Effect on enzyme activity: 1 mM
Experimental: as §1, §2

[4] = tested on: α-isomaltosyl-transferring enzyme from Bacillus globisporus N75
Experimental: as §1, §2

[5] = tested on: α-isomaltosyl-transferring enzyme from Arthrobacter globiformis A19; experiment: Action on saccharides (substrates, TLC); design: key: −: there was found no substrate change before and after the enzymatic reaction; +: there were found both the reduction of substrate and the formation of cyclotetrasaccharide after the enzymatic reaction; settings: partially purified enzyme, 2 units/g substrate, 2% (w/v) substrate, 30° C., pH 6.0, 24 hours
In short: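 Purified enzyme (partially purified for A. globiformis A19) at 2 units/g substrate acted on each saccharide at 2% (w/v), pH 6.0, 30° C., 24 h. Pre- and post-reaction mixtures ran on silica gel TLC in n-butanol/pyridine/water (6:4:1). Total sugars were stained by sulfuric acid-methanol and reducing sugars by diphenylamine-aniline.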

[6] = tested on: α-isomaltosyl-transferring enzyme from Arthrobacter ramosus S1; experiment: Action on saccharides (substrates, TLC); design: key: −: there was found no substrate change before and after the enzymatic reaction; +: there were found both the reduction of substrate and the formation of cyclotetrasaccharide after the enzymatic reaction; settings: 2 units/g substrate, 2% (w/v) substrate, 30° C., pH 6.0, 24 hours
In short: (§3)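 Each candidate saccharide, from malto- and isomalto-oligosaccharides to cyclodextrins, starch, pullulan and dextran, was prepared at 2% (w/v). Two units/g substrate of enzyme were added, then the mixture was held at pH 6.0, 30° C., 24 hours. Samples were then analysed by silica gel TLC.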

[7] = tested on: α-isomaltosyl-transferring enzyme from Bacillus globisporus C11; experiment: Action on saccharides (substrates, TLC); design: key: −: there was found no substrate change before and after the enzymatic reaction; +: there were found both the reduction of substrate and the formation of cyclotetrasaccharide after the enzymatic reaction; settings: 2 units/g substrate, 2% (w/v) substrate, 30° C., pH 6.0, 24 hours
In short: as §3

[8] = tested on: α-isomaltosyl-transferring enzyme from Bacillus globisporus C9; experiment: Action on saccharides (substrates, TLC); design: key: −: there was found no substrate change before and after the enzymatic reaction; +: there were found both the reduction of substrate and the formation of cyclotetrasaccharide after the enzymatic reaction; settings: 2 units/g substrate, 2% (w/v) substrate, 30° C., pH 6.0, 24 hours
In short: as §3

[9] = tested on: α-isomaltosyl-transferring enzyme from Bacillus globisporus N75; experiment: Action on saccharides (substrates, TLC); design: key: −: there was found no substrate change before and after the enzymatic reaction; +: there were found both the reduction of substrate and the formation of cyclotetrasaccharide after the enzymatic reaction; settings: 2 units/g substrate, 2% (w/v) substrate, 30° C., pH 6.0, 24 hours
In short: as §3

[10] = tested on: α-isomaltosyl-transferring enzyme from Arthrobacter globiformis A19; experiment: Specificity to transferring acceptor; design: key: −: no saccharide transferred product was formed; ±: a saccharide-transferred product formed in an amount of less than one percent to the total sugars; +: a saccharide-transferred product was formed in an amount of over one percent but below 10% to the total sugars; ++: a saccharide-transferred product was formed in an amount of over 10% to the total sugars; settings: partially purified enzyme, panose as saccharide donor, 10 units/g substrate, 3.2% (w/v), 30° C., pH 6.0, 24 hours
In short: (§4)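 Candidate acceptor saccharides mixed with panose donor at equal concentration, 10 units/g substrate enzyme, total saccharide 3.2% (w/v), reacted 24 h at 30 °C, pH 6.0. Transfer product formation scored positive/negative by GLC (mono-/disaccharides) or HPLC (tri- and higher).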

[11] = tested on: α-isomaltosyl-transferring enzyme from Arthrobacter ramosus S1; experiment: Specificity to transferring acceptor; design: key: −: no saccharide transferred product was formed; ±: a saccharide-transferred product formed in an amount of less than one percent to the total sugars; +: a saccharide-transferred product was formed in an amount of over one percent but below 10% to the total sugars; ++: a saccharide-transferred product was formed in an amount of over 10% to the total sugars; settings: panose as saccharide donor, 10 units/g substrate, 3.2% (w/v), 30° C., pH 6.0, 24 hours
In short: as §4

[12] = tested on: α-isomaltosyl-transferring enzyme from Bacillus globisporus C11; experiment: Specificity to transferring acceptor; design: key: −: no saccharide transferred product was formed; ±: a saccharide-transferred product formed in an amount of less than one percent to the total sugars; +: a saccharide-transferred product was formed in an amount of over one percent but below 10% to the total sugars; ++: a saccharide-transferred product was formed in an amount of over 10% to the total sugars; settings: panose as saccharide donor, 10 units/g substrate, 3.2% (w/v), 30° C., pH 6.0, 24 hours
In short: as §4

[13] = tested on: α-isomaltosyl-transferring enzyme from Bacillus globisporus C9; experiment: Specificity to transferring acceptor; design: key: −: no saccharide transferred product was formed; ±: a saccharide-transferred product formed in an amount of less than one percent to the total sugars; +: a saccharide-transferred product was formed in an amount of over one percent but below 10% to the total sugars; ++: a saccharide-transferred product was formed in an amount of over 10% to the total sugars; settings: panose as saccharide donor, 10 units/g substrate, 3.2% (w/v), 30° C., pH 6.0, 24 hours
In short: as §4

[14] = tested on: α-isomaltosyl-transferring enzyme from Bacillus globisporus N75; experiment: Specificity to transferring acceptor; design: key: −: no saccharide transferred product was formed; ±: a saccharide-transferred product formed in an amount of less than one percent to the total sugars; +: a saccharide-transferred product was formed in an amount of over one percent but below 10% to the total sugars; ++: a saccharide-transferred product was formed in an amount of over 10% to the total sugars; settings: panose as saccharide donor, 10 units/g substrate, 3.2% (w/v), 30° C., pH 6.0, 24 hours
In short: as §4

[15] = 1 mM metal ion, enzyme of Strain N75

[Al+3] [Al^3+]
Relative activity [1]: 103% | Relative activity [2]: 93% | Relative activity [3]: 89% | Relative activity [4, 15]: 94%

[Ba+2] [Ba^2+]
Relative activity [1]: 102% | Relative activity [2]: 97% | Relative activity [3]: 90% | Relative activity [4, 15]: 102%

[Ca+2] [Ca^2+]
Relative activity [1]: 101% | Effect on enzyme activity [1]: neither activated | Relative activity [2]: 103% | Effect on enzyme activity [2]: neither activated | Relative activity [3]: 91% | Effect on enzyme activity [3]: neither activated | Relative activity [4, 15]: 100% | Effect on enzyme activity ([4]; 1 mM, enzyme of Strain N75): neither activated

[Co+2] [Co^2+]
Relative activity [1]: 103% | Relative activity [2]: 91% | Relative activity [3]: 89% | Relative activity [4, 15]: 92%

[Cu+2] [Cu^2+]
Relative activity [1]: 57% | Effect on enzyme activity [1]: also inhibited | Relative activity [2]: 2% | Effect on enzyme activity [2]: also inhibited | Relative activity [3]: 56% | Effect on enzyme activity [3]: also inhibited | Relative activity [4, 15]: 15% | Effect on enzyme activity ([4]; 1 mM, enzyme of Strain N75): also inhibited

O=C(O)CN(CCN(CC(=O)O)CC(=O)O)CC(=O)O [EDTA]
Relative activity [1]: 104% | Effect on enzyme activity [1]: nor inhibited | Relative activity [2]: 91% | Effect on enzyme activity [2]: nor inhibited | Relative activity [3]: 98% | Effect on enzyme activity [3]: nor inhibited | Effect on enzyme activity [4]: nor inhibited | Relative activity [4]: 92%

[Fe+2] [Fe^2+]
Relative activity [1]: 96% | Relative activity ([1]; listed as Fe^3+): 105% | Relative activity [2]: 105% | Relative activity ([2]; listed as Fe^3+): 75%

[Mg+2] [Mg^2+]
Relative activity [2]: 99% | Relative activity [3]: 91% | Relative activity [4, 15]: 95%

[Mn+2] [Mn^2+]
Relative activity [1]: 106% | Relative activity [3]: 93% | Relative activity [4, 15]: 101%

OC[C@H]1O[C@@H]2O[C@H]3[C@H](O)[C@@H](O)[C@@H](O[C@H]4[C@H](O)[C@@H](O)[C@@H](O[C@H]5[C@H](O)[C@@H](O)[C@@H](O[C@H]6[C@H](O)[C@@H](O)[C@@H](O[C@H]7[C@H](O)[C@@H](O)[C@@H](O[C@H]8[C@H](O)[C@@H](O)[C@@H](O[C@H]1[C@H](O)[C@H]2O)O[C@@H]8CO)O[C@@H]7CO)O[C@@H]6CO)O[C@@H]5CO)O[C@@H]4CO)O[C@@H]3CO [β-Cyclodextrin, β-cyclodextrin]
Enzymatic action for forming cyclotetrasaccharide, Enzyme of Strain A19 [5]: − | Enzymatic action for forming cyclotetrasaccharide, Enzyme of Strain S1 [6]: − | Enzymatic action for forming cyclotetrasaccharide, Enzyme of Strain C11 [7]: − | Enzymatic action for forming cyclotetrasaccharide, Enzyme of Strain C9 [8]: − | Enzymatic action for forming cyclotetrasaccharide, Enzyme of Strain N75 [9]: − | Product of transferring reaction, Enzyme of Stain A19 [10]: − | Product of transferring reaction, Enzyme of Strain S1 [11]: − | Product of transferring reaction, Enzyme of Strain C11 [12]: − | Product of transferring reaction, Enzyme of Strain C9 [13]: − | Product of transferring reaction, Enzyme of Strain N75 [14]: −

OC[C@H]1O[C@@H]2O[C@H]3[C@H](O)[C@@H](O)[C@@H](O[C@H]4[C@H](O)[C@@H](O)[C@@H](O[C@H]5[C@H](O)[C@@H](O)[C@@H](O[C@H]6[C@H](O)[C@@H](O)[C@@H](O[C@H]7[C@H](O)[C@@H](O)[C@@H](O[C@H]8[C@H](O)[C@@H](O)[C@@H](O[C@H]9[C@H](O)[C@@H](O)[C@@H](O[C@H]1[C@H](O)[C@H]2O)O[C@@H]9CO)O[C@@H]8CO)O[C@@H]7CO)O[C@@H]6CO)O[C@@H]5CO)O[C@@H]4CO)O[C@@H]3CO [γ-Cyclodextrin, γ-cyclodextrin]
Enzymatic action for forming cyclotetrasaccharide, Enzyme of Strain A19 [5]: − | Enzymatic action for forming cyclotetrasaccharide, Enzyme of Strain S1 [6]: − | Enzymatic action for forming cyclotetrasaccharide, Enzyme of Strain C11 [7]: − | Enzymatic action for forming cyclotetrasaccharide, Enzyme of Strain C9 [8]: − | Enzymatic action for forming cyclotetrasaccharide, Enzyme of Strain N75 [9]: − | Product of transferring reaction, Enzyme of Stain A19 [10]: − | Product of transferring reaction, Enzyme of Strain S1 [11]: − | Product of transferring reaction, Enzyme of Strain C11 [12]: − | Product of transferring reaction, Enzyme of Strain C9 [13]: − | Product of transferring reaction, Enzyme of Strain N75 [14]: −

maltopentaose
Enzymatic action for forming cyclotetrasaccharide, Enzyme of Strain A19 [5]: − | Enzymatic action for forming cyclotetrasaccharide, Enzyme of Strain S1 [6]: − | Enzymatic action for forming cyclotetrasaccharide, Enzyme of Strain C11 [7]: − | Enzymatic action for forming cyclotetrasaccharide, Enzyme of Strain C9 [8]: − | Enzymatic action for forming cyclotetrasaccharide, Enzyme of Strain N75 [9]: − | Product of transferring reaction, Enzyme of Stain A19 [10]: + (a saccharide-transferred product was formed in an amount of over one percent but below 10% to the total sugars) | Product of transferring reaction, Enzyme of Strain S1 [11]: ± (a saccharide-transferred product formed in an amount of less than one percent to the total sugars) | Product of transferring reaction, Enzyme of Strain C11 [12]: + (a saccharide-transferred product was formed in an amount of over one percent but below 10% to the total sugars) | Product of transferring reaction, Enzyme of Strain C9 [13]: + (a saccharide-transferred product was formed in an amount of over one percent but below 10% to the total sugars) | Product of transferring reaction, Enzyme of Strain N75 [14]: ± (a saccharide-transferred product formed in an amount of less than one percent to the total sugars)

maltotriose
Enzymatic action for forming cyclotetrasaccharide, Enzyme of Strain A19 [5]: − | Enzymatic action for forming cyclotetrasaccharide, Enzyme of Strain S1 [6]: − | Enzymatic action for forming cyclotetrasaccharide, Enzyme of Strain C11 [7]: − | Enzymatic action for forming cyclotetrasaccharide, Enzyme of Strain C9 [8]: − | Enzymatic action for forming cyclotetrasaccharide, Enzyme of Strain N75 [9]: − | Product of transferring reaction, Enzyme of Stain A19 [10]: + (a saccharide-transferred product was formed in an amount of over one percent but below 10% to the total sugars) | Product of transferring reaction, Enzyme of Strain S1 [11]: ++ (a saccharide-transferred product was formed in an amount of over 10% to the total sugars) | Product of transferring reaction, Enzyme of Strain C11 [12]: + (a saccharide-transferred product was formed in an amount of over one percent but below 10% to the total sugars) | Product of transferring reaction, Enzyme of Strain C9 [13]: + (a saccharide-transferred product was formed in an amount of over one percent but below 10% to the total sugars) | Product of transferring reaction, Enzyme of Strain N75 [14]: + (a saccharide-transferred product was formed in an amount of over one percent but below 10% to the total sugars)
